Data from PMC6651555, “Cathepsin L Inhibitors with Activity against the Liver Fluke Identified From a Focus Library of Quinoxaline 1,4-di-N-Oxide Derivatives” (Molecules, 2019).
“Also recorded” adds a separate entry of the source.

Columns and labels:
[1] = target: T1, FhCL1 (Fasciola hepatica, UniProt Q7JNQ9); assay: FhCL1 inhibition screening, IC50 and slow-binding (fluorogenic substrate Z-VLK-AMC); format: biochemical; conditions: read-out: %Inh FhCL1, 10 µM compound, 20 min preincubation, relative to enzyme alone; SD less than 10%
T1 construct: made in house; host or cells: Hansenula polymorpha (yeast)
T1 sequence (Q7JNQ9 entry or part of it): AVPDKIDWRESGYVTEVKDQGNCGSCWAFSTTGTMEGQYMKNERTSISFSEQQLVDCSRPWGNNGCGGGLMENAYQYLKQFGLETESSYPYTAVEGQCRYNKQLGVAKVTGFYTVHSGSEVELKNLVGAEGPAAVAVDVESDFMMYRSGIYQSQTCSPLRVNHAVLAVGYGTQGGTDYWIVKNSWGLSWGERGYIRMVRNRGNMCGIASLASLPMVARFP
Description: (§1) Each compound was completely dissolved in dimethylsulfoxide (DMSO) to a concentration of 10 mM to prepare the stock solutions. To evaluate the inhibition of FhCL1 and FhCL3 by quinoxaline 1,4-di-N-oxide derivatives, nanomolar concentrations of each enzyme was incubated with compounds at 10 μM. Briefly, each enzyme and compound were preincubated 20 min in a 96-well plate in 0.1 M sodium phosphate buffer pH 6, 1 mM DTT, and 1 mM EDTA at room temperature. The reaction was initiated by adding 20 μM of substrate and enzyme activity was measured by the increase in aminomethyl coumarin (AMC) fluorescence as peptide substrates were hydrolyzed (Z-VLK-AMC for FhCL1 and Tos-GPR-AMC for FhCL3), at an excitation wavelength of 340 nm and emission wavelength of 440 nm using a spectrofluorometer (Varioskan Thermo, Waltham, MA, USA). Enzyme activity was expressed as RFU/s (relative fluorescence units of AMC released per second). Each compound was tested in triplicate. A control reaction without enzymes was performed to check for the occurrence of non-catalyzed reactions between substrates and inhibitors and a spectrum from 300 to 450 nm wavelength was done for each quinoxaline 1,4-di-N-oxide derivative to verify that none of them had optical activity in the measurement range. The percentage of enzyme inhibition was calculated as 100 − (vi/vo) × 100, where vi and vo correspond to the initial rate of AMC fluorescence increase (RFU/s) with and without inhibitor, respectively.
(§2) To calculate the IC50 values, compounds were incubated with each enzyme at seven different concentrations; 0.625, 1.25, 2.5, 5, 10, 20, and 40 μM. Then, the enzyme activity was measured in a 96-well plate as described before. We plotted initial rates (RFU/s) versus log10 of inhibitor concentrations and obtained the IC50 values by fitting the data to a sigmoid curve. We also carried out slow-binding assays to evaluate the time-dependence of the inhibition. Each compound was incubated at 10 μM with the enzyme for increasing lengths of time; 3 to 120 min and the percentage of inhibition at each time point was determined as described before. We calculated the inhibition percentage of the leader compounds at 10 μM for HsCL1. The enzyme was preincubated for 20 min with the compounds and the activity was measured in a 96-well plate in 400 mM sodium acetate, pH 5.5, with 4 mM EDTA, 8 mM DTT, and 20 μM of substrate Z-VLK-AMC. The percentage of enzyme inhibition was calculated as described for FhCL1 and FhCL3. We determined the IC50 value for C17 against HsCL by incubating the enzyme with four different concentrations of the compound 0, 10, 25, and 50 μM and measuring the activity as described before. We plotted initial rates (RFU/s) versus log10 of inhibitor concentration and obtained the IC50 value by fitting the data to a sigmoid curve.

[2] = system: FhCL3; assay: FhCL3 inhibition screening, IC50 and slow-binding (fluorogenic substrate Tos-GPR-AMC); format: biochemical, Fasciola hepatica; conditions: 10 µM compound, 20 min preincubation, relative to enzyme alone; SD less than 10%
Description: as §1, §2

[3] = system: F. hepatica NEJ; assay: In vitro culture of NEJ and treatment with inhibitors (motility score); format: cell-based, Fasciola hepatica; conditions: 50 μM compound, over 96 h
Description: F. hepatica metacercariae were acquired from Instituto Miguel C. Rubino (DILAVE, MGAP, Uruguay). NEJ were obtained by in vitro excystement as previously described with minor modifications. Briefly, metacercariae were incubated with 1% sodium hypochlorite for 5 min at room temperature to remove the outer cyst wall and then washed several times with PBS. Metacercariae activation was carried out in a medium prepared by mixing equal volumes of solution A (0.4% sodium taurocholate, 120 mM NaHCO3, 140 mM NaCl, pH 8.0) and solution B (50 mM HCl and 33 mM L-cysteine), and incubating at 39 °C until the NEJ begin to emerge (around 3–4 h). A 100 μm filter was used to retain the cyst wall. Collected NEJ were washed three times with RPMI-1640 supplemented with 200 U/mL Penicillin G sulfate, […] streptomycin sulfate, 500 ng/mL amphotericin B, 10 mM HEPES, counted and divided into groups of around 20 parasites that were transferred to 96 wells in tissue culture plates. Parasites were maintained at 37 °C, 5% CO2 in modified Basch’s medium. At day 1, each tested compound was added at a concentration of 50 μM in 0.5% DMSO. Also, 0.5% of DMSO was added to the control groups. Each condition was tested in duplicate. NEJ behavior was monitored under a light microscope (Olympus BX41, Hamburg, Germany), every day each well was recorded for a minute in order to assess parasite motility and registered using the following score: 3—normally active; 2—reduced activity (sporadic movement); 1—immotile (dead, adapted from). Control parasites were maintained in culture for seven days.

[4] = system: HepG2 cell line; assay: Cytotoxicity on the HepG2 cell line (Sulforhodamin B); format: cell-based; conditions: Homo sapiens, 24 h incubation with compound
Description: (§3) Cytotoxicity studies on the HepG2 cell line. Cells: 1.5 × 10^4 cells per 96-well plate were cultured in 225 µL of DMEM medium, supplemented with L-glutamine (1%), penicillin/streptomycin (1%), and 10% (v/v) fetal bovine serum (FBS). The cultures were maintained at 37 °C and 5% CO2 for 48 h. Treatment: Compound solutions were prepared just before dosing. Stock solutions, […], were prepared in 100% DMSO (Aldrich, Saint Louis, MO, USA) and 25 µL of adequate dilution was added to each well 24 h after plating the cells. For each compound, a dose-response curve was done with five different compound concentrations: 6.25, 12.5, 25, 50, and 100 µM (treated cells, T). No effect on cell growth was observed by the presence of 0.5% DMSO in the culture media (control cells, C). Cells were incubated with the compounds for 24 h at 37 °C in 5% CO2 atmosphere, then the medium was discarded and the cells were washed with PBS. The cells were then fixed with 50 µL of TCA (50%) and 200 µL of culture medium (without FBS) for 1 h at 4 °C. Then the cells were washed with purified water and treated with Sulforhodamin B (0.4% wt/vol in 1% acetic acid) for 10 min at room temperature. The plates were then washed with 1% acetic acid and dried overnight. Finally, 100 µL of Tris buffer (pH = 10.0) was added and absorbance read at 540 nm. Data calculations: The assays were done in four replicates. At the end of the experiment, the cell survival percentage (SP) was calculated for each compound as (T/C) × 100. To determine the IC50, the SP of cells at each compound concentration was plotted and the data were fitted to a sigmoid curve. The standard error was not greater than 10% for any condition. For the cytotoxicity assay with bovine spermatozoa, semen samples were obtained from a healthy fertile Hereford bull and kept frozen in 0.5 mL straws (extended in Andromed, Minitube, Tiefenbach, Germany) under liquid nitrogen until use. The semen used belonged to a single freezing batch that was obtained during a regular collection schedule with an artificial vagina. Samples from three straws were thawed and a sperm pool was prepared in PBS at a concentration of 80 million spermatozoa per ml. Then, 50 μL of this pool was carefully mixed with 50 μL of each compound to be tested at a concentration of 50 µM or 1% DMSO in control experiments. Each compound was assayed in triplicate in 96-well plates and controls were assayed in triplicate. Plates were incubated at 37 °C for 1 h with moderate shaking. The motility analysis was carried out using a CASA (Computer Assisted Semen Analyzer) system Androvision (Minitube, Tiefenbach, Germany) with an Olympus BX 41 microscope (Olympus, Japan) equipped with a warm-stage at 37 °C. Each sample (10 μL) was placed onto a Makler Counting Chamber (depth 10 μm, Sefi-Medical Instruments, Haifa, Israel) and the following parameters were evaluated: percentage of total motile spermatozoa (motility >5 μm/s) and velocity curved line (VCL > 24 μm/s). At least 400 spermatozoa were analyzed from each sample from at least four microscope fields.

[5] = system: bovine spermatozoa; assay: Cytotoxicity assay with bovine spermatozoa (CASA motility); format: cell-based; conditions: 50 µM, 1 h at 37 °C, relative to control sperm incubated with vehicle
Description: as §3

| Compound | inhibition at 10 µM [1] [%] | %Inh FhCL3 [2] [%] | Effect on NEJ motility / fasciolicide activity in vitro [3] | IC50 [4] [µM] | Sperm Motility RTC (relative to control) [5] |
| --- | --- | --- | --- | --- | --- |
| Cc1c[n+]([O-])c2ccccc2[n+]1[O-] [Compound C1] | 1 | 8 | – | – | – |
| O=Cc1c[n+]([O-])c2ccccc2[n+]1[O-] [Compound C2] | 21 | 0 | – | – | – |
| N#Cc1c(N)[n+]([O-])c2ccccc2[n+]1[O-] [Compound C3] | 30 | 0 | – | – | – |
| COC(=O)N/N=C/c1ccc2c(c1)[n+]([O-])c(C#N)c(N)[n+]2[O-] [Compound C4] | 0 | 27 | – | – | – |
| C=CCNC(=S)N/N=C/c1ccc2c(c1)[n+]([O-])c(C#N)c(N)[n+]2[O-] [Compound C5] | 20 | 39 | – | – | – |
| CCCCNC(=O)N/N=C/c1ccc2c(c1)[n+]([O-])c(C#N)c(N)[n+]2[O-] [Compound C6] | 59 | 27 | did not have activity against the parasites | – | – |
| CCN(C/C=C/c1ccccc1)c1ccc2c(c1)[n+]([O-])c(C#N)c(N)[n+]2[O-] [Compound C8] | 24 | 45 | – | – | – |
| N#Cc1c(N)[n+]([O-])c2cc(Cl)c(Cl)cc2[n+]1[O-] [Compound C9] | 15 | 0 | – | – | – |
| COC(=O)N/N=C/c1ccc2c(c1)[n+]([O-])c(C)c(C)[n+]2[O-] [Compound C10] | 13 | 3 | – | – | – |
| Cc1c(C)[n+]([O-])c2cc(/C=N/NC(=O)NCCc3ccccc3)ccc2[n+]1[O-] [Compound C11] | 56 | 32 | did not have activity against the parasites | – | – |
| C=CCN1C(=O)CS/C1=N/N=C/c1ccc2c(c1)[n+]([O-])c(C)c(C)[n+]2[O-] [Compound C12] | 0 | 22 | – | – | – |
| C=CCn1c(-c2ccc(Cl)cc2)csc1=NN=Cc1ccc2c(c1)[n+]([O-])c(C)c(C)[n+]2[O-] [Compound C13] | 34 | 2 | – | – | – |
| CCOC(=O)c1c(C)[n+]([O-])c2ccccc2[n+]1[O-] [Compound C14] | 28 | 5 | – | – | – |
| C=CCNC(=S)N/N=C/c1ccc2c(c1)[n+]([O-])c(C(=O)OCC)c(C)[n+]2[O-] [Compound C15] | 38 | 58 | did not have activity against the parasites | – | – |
| Cc1c(Sc2ccccc2)[n+]([O-])c2cc(Cl)c(Cl)cc2[n+]1[O-] [Compound C16] | 35 | 22 | – | – | – |
| CCOC(=O)c1c(-c2ccccc2)[n+]([O-])c2cc(Cl)c(Cl)cc2[n+]1[O-] [Compound C19] | 54 | 35 | progressive decrease of parasite motility starting between 24 and 96 h of culture; also recorded: strong fasciolicide activity in vitro | – | – |
| C=CCNC(=S)N/N=C/c1ccc2c(c1)[n+]([O-])c(C(=O)Nc1ccccc1)c(C)[n+]2[O-] [Compound C20] | 72 | 0 | – | – | – |
| CCN(C/C=C/c1ccccc1)c1ccc2c(c1)[n+]([O-])c(C(=O)Nc1ccccc1)c(C)[n+]2[O-] [Compound C21] | 47 | 54 | progressive decrease of parasite motility starting between 24 and 96 h of culture | – | – |
| Cc1c(C(=O)Nc2ccccc2)[n+]([O-])c2cc(CN3CCN(C/C=C/c4ccccc4)CC3)ccc2[n+]1[O-] [Compound C22] | 23 | 49 | – | – | – |
| C=CCN1C(=O)CS/C1=N/N=C/c1ccc2c(c1)[n+]([O-])c(-c1ccccc1)c(C(=O)Nc1ccccc1)[n+]2[O-] [Compound C24] | ≥ 80 | – | progressive decrease of parasite motility starting between 24 and 96 h of culture; also recorded: strong fasciolicide activity in vitro | 16 ± 0.1 | 82 ± 1 |
| Cc1c(C(=O)NCc2ccccc2)[n+]([O-])c2ccccc2[n+]1[O-] [Compound C25] | 47 | 40 | – | – | – |
| Cc1c(C(=O)c2ccccc2)[n+]([O-])c2cc(F)c(F)cc2[n+]1[O-] [Compound C26] | 41 | 17 | – | – | – |
| O=C(c1ccccc1)c1c(C(F)(F)F)[n+]([O-])c2ccccc2[n+]1[O-] [Compound C27] | 38 | 22 | – | – | – |
| O=C(c1ccccc1)c1c(C(F)(F)F)[n+]([O-])c2cc(F)c(F)cc2[n+]1[O-] [Compound C28] | 0 | 38 | – | – | – |
| CSc1nc2cc(Cl)c(Oc3cccc(Cl)c3Cl)cc2[nH]1 [TCBZ, triclabendazole, reference compound] | – | – | – | 32 ± 0.2 | 88 ± 1 |
